One assay relates to S. molesta. The experiment in a line: Phytotoxic analysis by pipet application on upper or lower leaf surface. Format: in vivo, Salvinia molesta. Particulars: for pest or weed control at 1 %: Salvinia molesta, topical, 72 h; for activity on upper or lower leaf surface applications: 1% solution, 72 hrs. The protocol:
General Experimental Procedure: 4-Hydroxybenzoic and 3,4-dihydroxybenzoic acids and 14 of their analogs were purchased commercially. Each of 16 compounds were prepared as 5 mL experimental solutions with NANOPURE™ water at 1% concentration. A total of 102 healthy and untreated living type III plants of S. molesta (approximately 10 g in fresh weight each) were cultured and tested in 17 plastic containers (23×23 cm, 2.37 L) with six plants in each container in a greenhouse (30° C. during the day time and 20° C. at night). The first container served as the controls without any treatment, the plants in each of the other 16 containers were treated by one of the 16 testing compounds, respectively. The plants in each container were randomly classified into two groups evenly. For each plant in the first group, 10 μL of 1% experimental solution was applied by pipet on the upper surface of each blade of the six pairs of large floating leaves close to the terminal bud. For each plant in the second group, 10 μL of 1% experimental solution was applied by pipet on the lower surface of each blade of the six pairs of large floating leaves close to the terminal bud. The leaf surfaces were examined for damage and analyzed 72 hrs after the treatments.

For a further assay, the system named is Salvinia molesta. Kind of assay: Greenhouse spray test on giant salvinia, living biomass. In kind it is in vivo. To be noted: 10 mL spray on three type III plants per container, day nine. The protocol:
General Experimental Procedure: Observations of giant salvinia growth in a greenhouse were performed under 28 different treatment conditions and control conditions with NANOPURE™ water or 0.5% DYNE-AMIC® (methyl esters of C16-C18 fatty acids, polyalkyleneoxide modified polydimethylsiloxane, and alkylphenol ethoxylate 99%, (Helena, Collierville, Tenn., United States)) (v:v).
Materials—4-hydroxybenzoic acid (>95%, HPLC analysis) and 3,4-dihydroxybenzoic acid (>95%) were isolated from S. molesta matter using the method as described in (Li, Wang et al. 2013). Ethylparaben (>99%) was purchased from a commercial source. Each of 4-hydroxybenzoic acid, 3,4-dihydroxybenzoic acid, and ethylparaben were prepared as 50 mL experimental solutions with NANOPURE™ water at the concentration of 0.5, 1.0, 1.5, and 2.0%, respectively. 0.5, 1.0, 1.5, and 2.0% 4-hydroxybenzoic acid, 3,4-dihydroxybenzoic acid, and ethylparaben with 0.5% surfactant DYNE-AMIC® was also prepared as 50 mL experimental solutions with NANOPURE™ water. Mixtures of 4-hydroxybenzoic acid with 3,4-dihydroxybenzoic acid (2:1, w:w) were prepared as 50 mL experimental solutions with NANOPURE™ water at the total concentration of 0.5, 1.0, and 1.5%, respectively. 3,4-dihydroxybenzoic acid was mixed with ethylparaben (2:1, w:w) and prepared as 50 mL experimental solution with NANOPURE™ water at the total concentration of 0.5, 1.0, and 1.5%, respectively.
Bioassay—For each treatment, a total of nine healthy and untreated living plants of S. molesta (type III, the biomass of three plants weighs approximately 10 g) were cultured in tap water in three plastic containers severing as three replications (14×15 cm, 0.68 L) with three plants each in a greenhouse (30° C. during the day time and 20° C. at night). The three plants in each of the three containers per treatment were sprayed with 10 mL NANOPURE™ water, 0.5% DYNE-AMIC®, or the experimental solution. Plant growth and survival status were documented and photographed in each treatment on day nine after the treatment. Pairwise comparisons for all treatments (including Control) in living biomass were made using Tukey test at alpha=0.05, which was done using SAS (SAS 9.4).

[1] abbreviates: 10 μL of 1% solution per blade, lower surface, read-out: Inhibition (%) Lower leaf Application.
[2] abbreviates: 10 μL of 1% solution per blade, upper surface, read-out: Inhibition (%) Upper leaf Application.
[3] abbreviates: read-out: Inhibition (%) Lower leaf Application, 10 μL of 1% solution per blade, lower surface.
[4] abbreviates: read-out: Inhibition (%) Upper leaf Application, 10 μL of 1% solution per blade, upper surface.

Like-named read-outs stand apart in the source and are kept apart here. A value given as a limit tells only on which side of the number the result lay.

`O=C(O)c1ccc(O)c(O)c1O` [2,3,4-Trihydroxybenzoic acid]: the pest or weed control at 1 % with S. molesta (setting [1]) stood at 11.1%; in the assay with S. molesta (setting [2]), 44.5%.

`O=C(O)c1cccc(O)c1O` [2,3-Dihydroxybenzoic acid]: the pest or weed control at 1 % in the assay with S. molesta (setting [1]) was 100%; in the assay with S. molesta (setting [2]), above 85%.

For `O=C(O)c1c(O)cc(O)cc1O` [2,4,6-Trihydroxybenzoic acid], the “activity on upper or lower leaf surface applications” value in the assay with S. molesta is recorded as “did not show any activities”. In addition, the pest or weed control at 1 % in the assay on S. molesta (setting [1]) was determined as 11.1%; in the assay on S. molesta (setting [2]), 0%.

As to `O=C(O)c1ccc(O)cc1O` [2,4-Dihydroxybenzoic acid], the pest or weed control at 1 % in the assay with S. molesta (setting [1]) was 72.2%; in the assay on S. molesta (setting [2]) it was above 85%.

Consider `O=C(O)c1cc(O)ccc1O` [2,5-Dihydroxybenzoic acid], for which the pest or weed control at 1 % with S. molesta (setting [1]) was found to be 11.1%; with S. molesta (setting [2]), 52.8%.

Take `O=C(O)c1c(O)cccc1O` [2,6-Dihydroxybenzoic acid]: the pest or weed control at 1 % was determined as 25% in the assay with S. molesta (setting [1]) and 44.4% in the assay with S. molesta (setting [2]).

Regarding `O=C(O)c1ccccc1O` [2-Hydroxybenzoic acid], the pest or weed control at 1 % in the assay with S. molesta (setting [1]) is 100%; with S. molesta (setting [2]) it was above 85%.

With `O=C(O)c1cc(O)c(O)c(O)c1` [3,4,5-Trihydroxybenzoic acid], the “activity on upper or lower leaf surface applications” value in the assay with S. molesta is recorded as “did not show any activities”. For the same molecule, the pest or weed control at 1 % in the assay on S. molesta (setting [1]) and in the assay on S. molesta (setting [2]) was 0% in each case.

For `O=C(O)c1cc(O)cc(O)c1` [3,5-Dihydroxybenzoic acid], the “activity on upper or lower leaf surface applications” value in the assay on S. molesta is on record as “did not show any activities”. The pest or weed control at 1 % in the assay on S. molesta (setting [1]) and with S. molesta (setting [2]) was 0% throughout.

Consider `O=C(O)c1cccc(O)c1` [3-Hydroxybenzoic acid], for which the pest or weed control at 1 % in the assay on S. molesta (setting [1]) came out at 66.7%; in the assay with S. molesta (setting [2]) it was 36.1%.

Turning to `O=C(O)c1ccccc1` [Benzoic acid], the values for the pest or weed control at 1 % with S. molesta (setting [3]) and in the assay on S. molesta (setting [4]) were 100% and above 85%, respectively.

As to `CCOC(=O)c1ccc(O)cc1` [Ethylparaben, reference compound], the “Living Biomass (mean ± s.d.)” value in the assay with Salvinia molesta (total concentration 0.5%) came out at 18.6 g; with Salvinia molesta (total concentration 1.0%), 18.7 g; in the assay on Salvinia molesta (total concentration 1.5%), 12.9 g; in the assay with Salvinia molesta (total concentration 2.0%), 13.5 g.

For `O=C(O)c1ccncc1` [Isonicotinic acid], the pest or weed control at 1 % turned out to be 33.3% in the assay with S. molesta (setting [1]) and 44.5% in the assay with S. molesta (setting [2]).

For the molecule `O=C(O)c1cccnc1` [Nicotinic acid], the “activity on upper or lower leaf surface applications” value with S. molesta is reported as “did not show any activities”. The pest or weed control at 1 % in the assay with S. molesta (setting [1]) and in the assay on S. molesta (setting [2]) was 0% in each case.

Consider `O=C(O)COc1ccccc1` [Phenoxyacetic acid], for which the figures for the pest or weed control at 1 % in the assay with S. molesta (setting [3]) and in the assay on S. molesta (setting [4]) were 16.7% and 77.8%, respectively.

The values are drawn from US11350582B2, “Plant varieties by application of endocides” (Stephen F. Austin State University, priority 2015, dated 2022).
